Where “and” joins values, the source holds several entries; their conditions need not be identical. Equal values may be shown once. Results filed as inconclusive are left out.

The test system of the assay is nude mice, HT29 intrarenal xenograft, tumor weight T/C. The assay can be described thus: NCI In Vivo Anticancer Drug Screen. Data for tumor model HT29;CX-1 Human Adenocarcinoma (MER+) (intrarenal inoculation) in NU/NU Swiss (nude) mice. To be noted: endpoint: mean tumor weight change, higher = larger tumour. Put shortly:
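Tumor-bearing mice received test compound or vehicle, and tumor size or survival was recorded. Values are the treated-group measurement divided by the vehicle-treated control measurement.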

[1] abbreviates: dose: 400.0 mg/kg/injection, schedule: Q04DX004 (sc), vehicle: saline with Tween-80.
The mark [2] stands for this setting: dose: 300.0 mg/kg/injection, schedule: Q04DX004 (sc), vehicle: Klucel (hydroxypropylcellulose) (HPC).
Where [3] appears, read: dose: 600.0 mg/kg/injection, schedule: Q04DX004 (sc), vehicle: Klucel (hydroxypropylcellulose) (HPC).
Setting [4] is: dose: 12.5 mg/kg/injection, schedule: Q01DX010 (sc), vehicle: saline with Tween-80.
Where [5] appears, read: dose: 75.0 mg/kg/injection, schedule: Q04DX004 (sc), vehicle: saline.
[6] abbreviates: dose: 150.0 mg/kg/injection, schedule: Q04DX004 (sc), vehicle: saline.
[7] abbreviates: dose: 200.0 mg/kg/injection, schedule: Q01DX010 (sc), vehicle: saline with Tween-80.
[8] abbreviates: dose: 400.0 mg/kg/injection, schedule: Q01DX010 (sc), vehicle: saline with Tween-80.
Where [9] appears, read: dose: 50.0 mg/kg/injection, schedule: Q01DX010 (sc), vehicle: saline with Tween-80.
Where [10] appears, read: dose: 100.0 mg/kg/injection, schedule: Q01DX010 (sc), vehicle: saline with Tween-80.
The mark [11] stands for this setting: dose: 75.0 mg/kg/injection, schedule: Q04DX004 (sc), vehicle: saline with Tween-80.
[12] abbreviates: dose: 150.0 mg/kg/injection, schedule: Q04DX004 (sc), vehicle: saline with Tween-80.
The mark [13] stands for this setting: dose: 300.0 mg/kg/injection, schedule: Q04DX004 (sc), vehicle: saline with Tween-80.
The mark [14] stands for this setting: dose: 600.0 mg/kg/injection, schedule: Q04DX004 (sc), vehicle: saline with Tween-80.
The mark [15] stands for this setting: dose: 300.0 mg/kg/injection, schedule: Q04DX004 (sc), vehicle: saline.

Regarding `CC1(c2ccc(Cl)cc2)OC(=O)C(=Cc2ccc([N+](=O)[O-])s2)C(=O)O1` (configuration not stated), the T/C reads like this: (dose: 50.0 mg/kg/injection, schedule: Q04DX004 (sc), vehicle: saline with Tween-80) 34 % of control; (dose: 100.0 mg/kg/injection, schedule: Q04DX004 (sc), vehicle: saline with Tween-80) 53 % of control; (dose: 200.0 mg/kg/injection, schedule: Q04DX004 (sc), vehicle: saline with Tween-80) 77 % of control; under setting [1], 60 % of control.

Regarding `C[C@]12CC[C@@H]3c4ccc(O)cc4CC[C@H]3[C@@H]1CC[C@@H]2O`, the T/C reads like this: under setting [2], 54 % of control; under setting [3], 75 % of control.

In the case of `Cc1ccc(NCCN(C)C)c2c(=O)c3cc(O)ccc3sc12`, the T/C is, setting by setting: (dose: 225.0 mg/kg/injection, schedule: Q04DX004 (sc), vehicle: Klucel (hydroxypropylcellulose) (HPC)) 81 % of control; (dose: 450.0 mg/kg/injection, schedule: Q04DX004 (sc), vehicle: Klucel (hydroxypropylcellulose) (HPC)) 64 % of control; (dose: 900.0 mg/kg/injection, schedule: Q04DX004 (sc), vehicle: Klucel (hydroxypropylcellulose) (HPC)) 99 % of control; (dose: 1800.0 mg/kg/injection, schedule: Q04DX004 (sc), vehicle: Klucel (hydroxypropylcellulose) (HPC)) 68 % of control.

Take `CC(=O)C(O)N1C(=O)C=CC1=O` (configuration not stated): the T/C reads like this: (dose: 2.5 mg/kg/injection, schedule: Q01DX010 (sc), vehicle: saline) 123 % of control; (dose: 5.0 mg/kg/injection, schedule: Q01DX010 (sc), vehicle: saline) 107 % of control; (dose: 10.0 mg/kg/injection, schedule: Q01DX010 (sc), vehicle: saline) 52 % of control; (dose: 20.0 mg/kg/injection, schedule: Q01DX010 (sc), vehicle: saline) 30 % of control.

For `Cc1cc(N(CC(C)Br)CC(C)Br)ccc1N=Nc1ccccc1C(=O)O` (configuration not stated), the T/C by setting is: (dose: 3.13 mg/kg/injection, schedule: Q01DX010 (sc), vehicle: saline with Tween-80) 69 % of control; (dose: 6.25 mg/kg/injection, schedule: Q01DX010 (sc), vehicle: saline with Tween-80) 18 % of control; under setting [4], 14 % of control.

`S=c1[nH]cc2cnccn12`: the T/C was 97 % of control (dose: 450.0 mg/kg/injection, schedule: Q04DX004 (sc), vehicle: saline with Tween-80); 107 % of control (dose: 900.0 mg/kg/injection, schedule: Q04DX004 (sc), vehicle: saline with Tween-80); 117 % of control (dose: 1800.0 mg/kg/injection, schedule: Q04DX004 (sc), vehicle: saline with Tween-80).

Take `COC1=NCN=C2SC=C(N)N=C12`: the T/C reads like this: (dose: 37.5 mg/kg/injection, schedule: Q04DX004 (sc), vehicle: saline) 86 % of control; under setting [5], 70 % of control; under setting [6], 73 % of control.

On to `O=C(N/N=C\c1cc(Br)cc(Br)c1O)N/N=C/c1cc(Br)cc(Br)c1O`, for which the T/C reads like this: under setting [7], 71 % of control and 94 % of control; under setting [8], 43 % of control and 56 % of control; (dose: 800.0 mg/kg/injection, schedule: Q01DX010 (sc), vehicle: saline with Tween-80) 76 % of control.

As for `O=C1NC(c2ccccc2)N=C2Oc3ccccc3C=C12` (configuration not stated), the T/C runs as follows: under setting [9], 115 % of control; under setting [10], 155 % of control; under setting [7], 77 % of control; under setting [8], 54 % of control.

Consider `O=C(CC(=O)C(F)(F)F)c1csc2ccccc12`, for which the T/C is 116 % of control (dose: 150.0 mg/kg/injection, schedule: Q04DX004 (sc), vehicle: Klucel (hydroxypropylcellulose) (HPC)); 73 % of control under setting [2]; 87 % of control under setting [3].

On to `O=C(C/C(=N\C(=S)Nc1cc(C(F)(F)F)ccc1Cl)NO)N1CCCC1`, for which the T/C is, setting by setting: under setting [11], 51 % of control; under setting [12], 49 % of control; under setting [13], 80 % of control; under setting [14], 70 % of control.

With `S=C(Nc1ccc(Cl)c(Cl)c1)N1c2ccccc2-n2cccc2C1c1cccnc1` (configuration not stated), the T/C is, setting by setting: (dose: 200.0 mg/kg/injection, schedule: Q04DX004 (sc), vehicle: Klucel (hydroxypropylcellulose) (HPC)) 52 % of control; (dose: 400.0 mg/kg/injection, schedule: Q04DX004 (sc), vehicle: Klucel (hydroxypropylcellulose) (HPC)) 114 % of control; (dose: 800.0 mg/kg/injection, schedule: Q04DX004 (sc), vehicle: Klucel (hydroxypropylcellulose) (HPC)) 83 % of control.

Consider `O=S(=O)(O)O.[NH-]C1CCCCC1[NH-].[Pt+2]` (configuration not stated), for which, under “dose: 0.62 mg/kg/injection, schedule: Q01DX010 (sc), vehicle: dextrose”, the T/C is 21 % of control.

In the case of `CC1(C)OC2C(COC(=O)c3ccc([N+](=O)[O-])cc3)OC(NC(=O)N(CCCl)N=O)C2O1` (configuration not stated), the T/C under setting [12] was 38 % of control, the T/C under setting [13] is 26 % of control and the T/C under setting [14] is 70 % of control.

With `CO[C@H](/C(C)=C/C=C/C(C)=C/c1coc(C)n1)[C@H](C)[C@H]1C[C@@H](O)[C@@]2(C)O[C@H]2/C=C/[C@@H](C)[C@@H]2C[C@@H](CC(=O)O2)C[C@H]2O[C@@H]2C(=O)O1`, the T/C (dose: 0.12 mg/kg/injection, schedule: Q04DX004 (sc), vehicle: Klucel (hydroxypropylcellulose) (HPC)) was 87 % of control; the T/C (dose: 0.25 mg/kg/injection, schedule: Q04DX004 (sc), vehicle: Klucel (hydroxypropylcellulose) (HPC)) was 45 % of control; the T/C (dose: 0.5 mg/kg/injection, schedule: Q04DX004 (sc), vehicle: Klucel (hydroxypropylcellulose) (HPC)) was 30 % of control.

For `Cc1ncc([N+](=O)[O-])n1CCSC(N)=O`, the T/C runs as follows: under setting [1], 112 % of control; (dose: 800.0 mg/kg/injection, schedule: Q04DX004 (sc), vehicle: saline with Tween-80) 76 % of control; (dose: 1600.0 mg/kg/injection, schedule: Q04DX004 (sc), vehicle: saline with Tween-80) 111 % of control.

`CCN(CC)CCOCCO`: the T/C is 113 % of control under setting [6] and 89 % of control under setting [15].

With `O=c1[nH]cnc2[nH]ncc12`, the T/C (dose: 150.0 mg/kg/injection, schedule: Q04DX004 (sc), vehicle: suspension in saline) is 33 % of control; the T/C (dose: 300.0 mg/kg/injection, schedule: Q04DX004 (sc), vehicle: suspension in saline) is 31 % of control; the T/C (dose: 600.0 mg/kg/injection, schedule: Q04DX004 (sc), vehicle: suspension in saline) is 21 % of control; the T/C (dose: 1200.0 mg/kg/injection, schedule: Q04DX004 (sc), vehicle: suspension in saline) is 31 % of control.

As for `CCC1CN2C(=N1)c1ccccc1-c1cc(Cl)ccc12` (configuration not stated), the T/C by setting is: under setting [4], 74 % of control; (dose: 25.0 mg/kg/injection, schedule: Q01DX010 (sc), vehicle: saline with Tween-80) 37 % of control; under setting [9], 60 % of control; under setting [10], 89 % of control.

In the case of `CCNC(=O)OCc1c(COC(=O)NCC)c(-c2ccc(Cl)c(Cl)c2)n2c1CCC2`, the T/C is 5 % of control and 19 % of control under setting [11]; 66 % of control under setting [12].

For `C1CNCOC1`, the T/C under setting [5] was 123 % of control; the T/C under setting [6] is 158 % of control; the T/C under setting [15] was 91 % of control; the T/C (dose: 600.0 mg/kg/injection, schedule: Q04DX004 (sc), vehicle: saline) was 75 % of control.

Consider `Oc1ccc(SCc2ccc(NCc3ccccc3)cc2)cc1`, for which the T/C reads like this: (dose: 400.0 mg/kg/injection, schedule: Q01DX009 (sc), vehicle: saline with Tween-80) 50 % of control; (dose: 500.0 mg/kg/injection, schedule: Q01DX010 (sc), vehicle: saline with Tween-80) 90 % of control; (dose: 800.0 mg/kg/injection, schedule: Q01DX009 (sc), vehicle: saline with Tween-80) 84 % of control; (dose: 1000.0 mg/kg/injection, schedule: Q01DX010 (sc), vehicle: saline with Tween-80) 84 % of control; (dose: 1600.0 mg/kg/injection, schedule: Q01DX009 (sc), vehicle: saline with Tween-80) 49 % of control; (dose: 2000.0 mg/kg/injection, schedule: Q01DX010 (sc), vehicle: saline with Tween-80) 54 % of control.

Values taken from PubChem BioAssay AID206 (DTP/NCI, 2004).
